Assay results as given in patent US9475784B2, “4,6-diarylaminothiazines as BACE1 inhibitors and their use for the reduction of beta-amyloid production” (BRISTOL-MYERS SQUIBB COMPANY, priority 2012, dated 2016).
Structures can show the parent of a compound that is named as a salt.

System: Aβ42 production in H4 cells stably transfected with APP751 containing the Swedish mutation (H4 APP751 SWE clone 8.20)
Assay: Cellular assay for inhibition of Aβ1-42 production (H4 APP751 SWE clone 8.20)
Assay type: cell-based
Details: H4 APP751 SWE clone 8.20 cells, 19 h incubation
Method: Cellular Assays for Inhibition of Aβ1-40 and Aβ1-42 Production
H4 cells stably transfected with APP751 containing the Swedish mutation (H4 APP751 SWE clone 8.20, developed at BMS) were maintained in log phase through twice weekly passage at a 1:20 split. […] Following incubation for 19 h in 5% CO2 at 37° C., plates were briefly centrifuged (1000 rpm, 5 min). A 10 μl aliquot from each well was transferred to a second assay plate (Costar 3709) for Aβ40 measurements. Antibody cocktails were freshly prepared by dilution into 40 mM Tris-HCl (pH 7.4) with 0.2% BSA and added to assay plates. For Aβ42 measurements, antibodies specific for the Aβ42 neoepitope (565, developed at BMS; conjugated to the Wallac reagent (Perkin Elmer)) and the N-terminal sequence of Aβ peptide (26D6, developed at SIBIA; conjugated to APC (Perkin Elmer)) were mixed and 20 μl of the mixture was added to each well of the incubated cell plate yielding a final concentration of 0.8 ng/well 565 and 75 ng/well 26D6. For the Aβ40 measurements, antibodies specific for the Aβ40 neoepitope (TSD, developed at BMS; conjugated to the Wallac reagent (Perkin Elmer)) and 26D6 as described above were mixed and 20 μl of the mixture was added to the 10 μl aliquots which had been removed previously from the cell plate yielding a final concentration of 1.6 ng/well TSD and 17.5 ng/well 26D6. Assay plates containing antibodies were sealed with aluminum foil and incubated overnight at 4° C. Signal was determined using a Viewlux counter (Perkin Elmer) and IC50 values determined using curve fitting in CurveMaster (Excel Fit based).

[1] = Table 5A, 6-alkyl and 6-substituted phenyl thiazine examples
[2] = Table 5B, 6-heterocyclic thiazine examples

SMILES | IC50 [1] | IC50 [2]
NC1=N[C@H](c2cccc(-c3cncnc3)c2)C[C@@H](c2ccc(F)cc2)S1 (racemic) [Example 16, (±)-6-(4-fluorophenyl)-4-(3-(pyrimidin-5-yl)phenyl)-5,6-dihydro-4H-1,3-thiazin-2-amine•TFA] | 2600 nM | –
COc1ccc([C@]23CCCCC2[C@@H](c2cccc(-c4cncnc4)c2)N=C(N)S3)cc1 (mixture of isomers) [Example 17, (±)-8a-(4-methoxyphenyl)-4-(3-(pyrimidin-5-yl)phenyl)-4a,5,6,7,8,8a-hexahydro-4H-benzo[e][1,3]thiazin-2-amine•TFA] | 3300 nM | –
Cc1n[nH]c(C)c1[C@@H]1C[C@@H](c2cccc(-c3cncnc3)c2)N=C(N)S1 (racemic) [Example 18, (±)-6-(3,5-dimethyl-1H-pyrazol-4-yl)-4-(3-(pyrimidin-5-yl)phenyl)-5,6-dihydro-4H-1,3-thiazin-2-amine•TFA] | – | 7100 nM
Cc1noc(C)c1[C@@H]1C[C@@H](c2cccc(-c3cncnc3)c2)N=C(N)S1 (racemic) [Example 19, (±)-6-(3,5-dimethylisoxazol-4-yl)-4-(3-(pyrimidin-5-yl)phenyl)-5,6-dihydro-4H-1,3-thiazin-2-amine•TFA] | – | 230 nM
NC1=N[C@H](c2cccc(-c3cncnc3)c2)C[C@@H](c2cccnc2)S1 (racemic) [Example 20, (±)-6-(pyridin-3-yl)-4-(3-(pyrimidin-5-yl)phenyl)-5,6-dihydro-4H-1,3-thiazin-2-amine•TFA] | – | 7800 nM
NC1=N[C@H](c2cccc(-c3cncnc3)c2)C[C@@H](c2c[nH]cn2)S1 (racemic) [Example 21, (±)-6-(1H-imidazol-4-yl)-4-(3-(pyrimidin-5-yl)phenyl)-5,6-dihydro-4H-1,3-thiazin-2-amine•TFA] | – | > 30000 nM
NC1=N[C@H](c2cccc(-c3cncnc3)c2)C[C@@H](c2ccccn2)S1 (racemic) [Example 22, (±)-6-(pyridin-2-yl)-4-(3-(pyrimidin-5-yl)phenyl)-5,6-dihydro-4H-1,3-thiazin-2-amine•TFA] | – | 2000 nM
NC1=N[C@H](c2cccc(-c3cncnc3)c2)C[C@@H](c2cnccn2)S1 (racemic) [Example 23, (±)-6-(pyrazin-2-yl)-4-(3-(pyrimidin-5-yl)phenyl)-5,6-dihydro-4H-1,3-thiazin-2-amine•TFA] | – | 2400 nM
Cc1ncsc1[C@@H]1C[C@@H](c2cccc(-c3cncnc3)c2)N=C(N)S1 (racemic) [Example 24, (±)-6-(4-methylthiazol-5-yl)-4-(3-(pyrimidin-5-yl)phenyl)-5,6-dihydro-4H-1,3-thiazin-2-amine•TFA] | – | 1000 nM
Cc1c([C@@H]2C[C@@H](c3cccc(-c4cncnc4)c3)N=C(N)S2)cnn1C (racemic) [Example 25, (±)-6-(1,5-dimethyl-1H-pyrazol-4-yl)-4-(3-(pyrimidin-5-yl)phenyl)-5,6-dihydro-4H-1,3-thiazin-2-amine•TFA] | – | 3400 nM
Cc1nn(C)cc1[C@@H]1C[C@@H](c2cccc(-c3cncnc3)c2)N=C(N)S1 (racemic) [Example 26, (±)-6-(1,3-dimethyl-1H-pyrazol-4-yl)-4-(3-(pyrimidin-5-yl)phenyl)-5,6-dihydro-4H-1,3-thiazin-2-amine•TFA] | – | 2500 nM
Cn1cc([C@@H]2C[C@@H](c3cccc(-c4cncnc4)c3)N=C(N)S2)cn1 (racemic) [Example 27, (±)-6-(1-methyl-1H-pyrazol-4-yl)-4-(3-(pyrimidin-5-yl)phenyl)-5,6-dihydro-4H-1,3-thiazin-2-amine•TFA] | – | 2600 nM
Cc1nn(C)c(C)c1[C@@H]1C[C@@H](c2cccc(-c3cncnc3)c2)N=C(N)S1 (racemic) [Example 28, (±)-4-(3-(pyrimidin-5-yl)phenyl)-6-(1,3,5-trimethyl-1H-pyrazol-4-yl)-5,6-dihydro-4H-1,3-thiazin-2-amine•TFA] | – | > 30000 nM
Cc1noc(C)c1[C@@H]1C[C@@H](c2cc(-c3cncnc3)c(F)cc2F)N=C(N)S1 (racemic) [Example 29, (±)-4-(2,4-difluoro-5-(pyrimidin-5-yl)phenyl)-6-(3,5-dimethylisoxazol-4-yl)-5,6-dihydro-4H-1,3-thiazin-2-amine] | – | 200 nM
COc1ccc([C@@H]2C[C@@H](c3cc(-c4cncnc4)cs3)N=C(N)S2)cc1OC (racemic) [Example 30, (±)-6-(3,4-dimethoxyphenyl)-4-(4-(pyrimidin-5-yl)thiophen-2-yl)-5,6-dihydro-4H-1,3-thiazin-2-amine] | 8000 nM | –
COc1ccc([C@@H]2C[C@@H](c3cccc(-c4cccc(C#N)c4)c3)N=C(N)S2)cc1OC (racemic) [Example 31, 3′-((±)-2-amino-6-(3,4-dimethoxyphenyl)-5,6-dihydro-4H-1,3-thiazin-4-yl)biphenyl-3-carbonitrile] | 8900 nM | –

SMILES | IC50 [1] | IC50 [2]
CC#Cc1cncc(-c2cc([C@@H]3C[C@@H](c4ccc(OC)c(OC)c4)SC(N)=N3)c(F)cc2F)c1 (racemic) [Example 32, (±)-4-(2,4-difluoro-5-(5-(prop-1-ynyl)pyridin-3-yl)phenyl)-6-(3,4-dimethoxyphenyl)-5,6-dihydro-4H-1,3-thiazin-2-amine] | 1000 nM | –
Cc1oncc1[C@]1(C)C[C@@H](c2cc(-c3cncnc3)c(F)cc2F)N=C(N)S1 (racemic) [Example 33, (±)-4-(2,4-difluoro-5-(pyrimidin-5-yl)phenyl)-6-methyl-6-(5-methylisoxazol-4-yl)-5,6-dihydro-4H-1,3-thiazin-2-amine] | – | 180 nM
Cc1noc(C)c1[C@]1(C)C[C@@H](c2cc(-c3cncnc3)c(F)cc2F)N=C(N)S1 (racemic) [Example 34, (±)-4-(2,4-difluoro-5-(pyrimidin-5-yl)phenyl)-6-(3,5-dimethylisoxazol-4-yl)-6-methyl-5,6-dihydro-4H-1,3-thiazin-2-amine•TFA] | – | 2700 nM
Cc1noc(C)c1[C@@H]1C[C@@H](c2cc(-c3cccc(C#N)c3)cs2)N=C(N)S1 (racemic) [Example 35, 3-(5-((±)-2-amino-6-(3,5-dimethylisoxazol-4-yl)-5,6-dihydro-4H-1,3-thiazin-4-yl)thiophen-3-yl)benzonitrile] | – | 300 nM
CC#Cc1cncc(-c2csc([C@@H]3C[C@@H](c4c(C)noc4C)SC(N)=N3)c2)c1 (racemic) [Example 36, (±)-6-(3,5-dimethylisoxazol-4-yl)-4-(4-(5-(prop-1-ynyl)pyridin-3-yl)thiophen-2-yl)-5,6-dihydro-4H-1,3-thiazin-2-amine] | – | 60 nM
Cc1noc(C)c1[C@@H]1C[C@@H](c2cc(NC(=O)c3ccc(Br)cn3)ccc2F)N=C(N)S1 (racemic) [Example 37, N-(3-((±)-2-amino-6-(3,5-dimethylisoxazol-4-yl)-5,6-dihydro-4H-1,3-thiazin-4-yl)-4-fluorophenyl)-5-bromopicolinamide] | – | 22 nM
Cc1noc(C)c1[C@@H]1C[C@@H](c2cc(NC(=O)c3ccc(Cl)cn3)ccc2F)N=C(N)S1 (racemic) [Example 38, N-(3-((±)-2-amino-6-(3,5-dimethylisoxazol-4-yl)-5,6-dihydro-4H-1,3-thiazin-4-yl)-4-fluorophenyl)-5-chloropicolinamide•TFA] | – | 11 nM
COc1ccc([C@@H]2C[C@@H](c3cc(-c4cncnc4)c(F)cc3F)N=C(N)S2)cc1OC (single isomer, unassigned) [Example 1A] | 290 nM | –
COc1ccc([C@@H]2C[C@@H](c3cccc(-c4cncnc4)c3)N=C(N)S2)cc1OC (single isomer, unassigned) [Example 3A] | 1100 nM | –
COc1ccc([C@@H]2C[C@@H](c3ccc(F)c(-c4cncnc4)c3)N=C(N)S2)cc1OC (single isomer, unassigned) [Example 7A] | 350 nM | –
COc1ccc([C@@H]2C[C@@H](c3cc(-c4cncnc4)ccc3F)N=C(N)S2)cc1OC (single isomer, unassigned) [Example 8A] | 460 nM | –
Cc1noc(C)c1[C@@H]1C[C@@H](c2cc(-c3cncnc3)c(F)cc2F)N=C(N)S1 (single isomer, unassigned) [Example 29A] | – | 60 nM
Cc1noc(C)c1[C@@H]1C[C@@H](c2cc(NC(=O)c3ccc(Cl)cn3)ccc2F)N=C(N)S1 (single isomer, unassigned) [Example 38A] | – | 5 nM
COc1ccc([C@@H]2C[C@@H](c3cccc(-c4cncnc4)c3)N=C(N)S2)cn1 [Example 10, (4S,6S)-6-(6-methoxypyridin-3-yl)-4-(3-(pyrimidin-5-yl)phenyl)-5,6-dihydro-4H-1,3-thiazin-2-amine•TFA] | – | 2100 nM
Cc1noc(C)c1[C@@H]1C[C@@](C)(c2cc(-c3cncnc3)c(F)cc2F)N=C(N)S1 [Example 39, (4S,6S)-4-(2,4-difluoro-5-(pyrimidin-5-yl)phenyl)-6-(3,5-dimethylisoxazol-4-yl)-4-methyl-5,6-dihydro-4H-1,3-thiazin-2-amine] | – | 8 nM
Cc1ncc(-c2cc([C@]3(C)C[C@@H](c4c(C)noc4C)SC(N)=N3)c(F)cc2F)cn1 [Example 40, (4S,6S)-4-(2,4-difluoro-5-(2-methylpyrimidin-5-yl)phenyl)-6-(3,5-dimethylisoxazol-4-yl)-4-methyl-5,6-dihydro-4H-1,3-thiazin-2-amine] | – | 186 nM
